The target in series [1] is T1, rat sodium-dependent nucleobase transporter 1 (rSNBT1) (Rattus norvegicus, UniProt D2KX48).
T1 construct: gene Slc23a4
T1 sequence (D2KX48 1-614): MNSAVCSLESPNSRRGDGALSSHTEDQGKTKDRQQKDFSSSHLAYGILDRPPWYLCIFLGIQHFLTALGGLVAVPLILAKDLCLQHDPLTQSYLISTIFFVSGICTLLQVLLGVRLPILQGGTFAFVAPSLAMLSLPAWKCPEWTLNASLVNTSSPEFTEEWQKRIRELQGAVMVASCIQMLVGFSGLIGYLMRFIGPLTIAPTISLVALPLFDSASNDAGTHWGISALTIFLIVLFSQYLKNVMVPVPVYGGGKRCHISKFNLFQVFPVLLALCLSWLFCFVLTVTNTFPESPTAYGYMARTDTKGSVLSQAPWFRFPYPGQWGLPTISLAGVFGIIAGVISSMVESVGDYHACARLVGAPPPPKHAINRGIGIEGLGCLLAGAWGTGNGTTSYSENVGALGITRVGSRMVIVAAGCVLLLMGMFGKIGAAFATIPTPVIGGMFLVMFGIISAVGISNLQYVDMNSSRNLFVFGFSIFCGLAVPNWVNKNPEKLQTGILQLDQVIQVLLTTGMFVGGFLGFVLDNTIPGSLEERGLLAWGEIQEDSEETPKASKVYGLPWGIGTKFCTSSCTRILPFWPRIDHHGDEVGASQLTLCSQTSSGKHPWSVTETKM
The series is described as follows: inhibition of rSNBT1-specific […]urate uptake in stably transfected MDCKII cells. It counts as cell-based.

Series [2] deals with T2, rat breast cancer resistance protein (rBCRP) (Rattus norvegicus, UniProt Q80W57).
T2 construct: gene Abcg2
T2 sequence (Q80W57 1-657): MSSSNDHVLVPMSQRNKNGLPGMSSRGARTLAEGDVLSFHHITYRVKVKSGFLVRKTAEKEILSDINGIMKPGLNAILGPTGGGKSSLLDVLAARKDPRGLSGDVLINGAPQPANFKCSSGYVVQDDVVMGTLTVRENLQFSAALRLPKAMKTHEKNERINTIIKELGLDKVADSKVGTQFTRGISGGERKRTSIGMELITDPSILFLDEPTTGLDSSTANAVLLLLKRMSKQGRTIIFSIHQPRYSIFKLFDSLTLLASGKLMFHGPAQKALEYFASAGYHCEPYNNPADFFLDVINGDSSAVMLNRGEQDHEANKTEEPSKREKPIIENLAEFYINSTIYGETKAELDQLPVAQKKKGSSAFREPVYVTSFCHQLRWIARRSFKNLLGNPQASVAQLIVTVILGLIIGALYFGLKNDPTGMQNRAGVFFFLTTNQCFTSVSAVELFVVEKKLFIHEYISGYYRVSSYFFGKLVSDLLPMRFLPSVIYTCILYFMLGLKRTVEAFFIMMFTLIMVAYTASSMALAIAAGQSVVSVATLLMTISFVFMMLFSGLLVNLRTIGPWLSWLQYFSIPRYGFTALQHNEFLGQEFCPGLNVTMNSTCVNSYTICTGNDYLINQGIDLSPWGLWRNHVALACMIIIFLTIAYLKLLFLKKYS
Briefly: inhibition of rBCRP-mediated urate efflux in HEK293 cells co-expressing rSNBT1 ([…]). The series is classed as cell-based.

For series [3], the target named is T1, rat sodium-dependent nucleobase transporter 1 (rSNBT1). The series is described as follows: inhibition of rSNBT1-specific […]urate uptake in stably transfected MDCKII cells; [3H]uracil uptake in transfected HEK293 cells. The series is classed as cell-based.
In series [4] the target is T3, human URAT1 (urate transporter 1) (Homo sapiens, UniProt Q96S37).
T3 construct: gene SLC22A12
T3 sequence (Q96S37 1-553): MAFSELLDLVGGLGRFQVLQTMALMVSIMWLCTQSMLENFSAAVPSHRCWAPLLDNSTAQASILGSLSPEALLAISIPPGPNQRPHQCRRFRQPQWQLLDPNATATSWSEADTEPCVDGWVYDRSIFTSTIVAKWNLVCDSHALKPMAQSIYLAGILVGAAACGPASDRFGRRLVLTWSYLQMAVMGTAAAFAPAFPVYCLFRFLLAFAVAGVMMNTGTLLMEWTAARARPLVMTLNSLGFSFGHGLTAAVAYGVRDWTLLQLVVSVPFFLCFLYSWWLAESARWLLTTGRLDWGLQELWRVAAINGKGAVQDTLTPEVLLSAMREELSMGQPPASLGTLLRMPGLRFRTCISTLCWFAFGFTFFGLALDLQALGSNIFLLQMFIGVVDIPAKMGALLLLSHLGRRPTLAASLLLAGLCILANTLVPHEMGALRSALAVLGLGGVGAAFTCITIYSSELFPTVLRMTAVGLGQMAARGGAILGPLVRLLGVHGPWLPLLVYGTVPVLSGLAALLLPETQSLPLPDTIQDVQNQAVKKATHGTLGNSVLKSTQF

The target of series [5] is T4, human organic anion transporter 1 (OAT1) (Homo sapiens, UniProt Q4U2R8).
T4 construct: gene SLC22A6
T4 sequence (Q4U2R8 1-563): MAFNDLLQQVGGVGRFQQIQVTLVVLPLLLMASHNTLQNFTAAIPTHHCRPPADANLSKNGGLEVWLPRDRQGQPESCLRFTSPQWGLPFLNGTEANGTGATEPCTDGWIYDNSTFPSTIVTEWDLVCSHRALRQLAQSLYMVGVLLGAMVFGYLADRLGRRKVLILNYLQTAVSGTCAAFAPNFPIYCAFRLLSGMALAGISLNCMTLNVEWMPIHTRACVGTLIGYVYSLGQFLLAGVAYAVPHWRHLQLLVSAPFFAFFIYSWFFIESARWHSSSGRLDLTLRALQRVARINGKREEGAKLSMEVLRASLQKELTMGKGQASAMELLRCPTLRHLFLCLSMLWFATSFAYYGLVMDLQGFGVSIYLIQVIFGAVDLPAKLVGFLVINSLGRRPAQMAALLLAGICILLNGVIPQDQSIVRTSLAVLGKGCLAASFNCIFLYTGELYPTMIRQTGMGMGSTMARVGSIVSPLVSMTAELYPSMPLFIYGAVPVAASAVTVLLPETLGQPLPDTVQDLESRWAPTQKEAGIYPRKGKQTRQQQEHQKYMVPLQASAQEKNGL
The series is described as follows: […]urate uptake in transiently transfected HEK293 cells. It counts as cell-based.

Series [6] deals with T5, human OAT3 (Homo sapiens, UniProt Q8TCC7).
T5 construct: gene SLC22A8
T5 sequence (Q8TCC7 1-542): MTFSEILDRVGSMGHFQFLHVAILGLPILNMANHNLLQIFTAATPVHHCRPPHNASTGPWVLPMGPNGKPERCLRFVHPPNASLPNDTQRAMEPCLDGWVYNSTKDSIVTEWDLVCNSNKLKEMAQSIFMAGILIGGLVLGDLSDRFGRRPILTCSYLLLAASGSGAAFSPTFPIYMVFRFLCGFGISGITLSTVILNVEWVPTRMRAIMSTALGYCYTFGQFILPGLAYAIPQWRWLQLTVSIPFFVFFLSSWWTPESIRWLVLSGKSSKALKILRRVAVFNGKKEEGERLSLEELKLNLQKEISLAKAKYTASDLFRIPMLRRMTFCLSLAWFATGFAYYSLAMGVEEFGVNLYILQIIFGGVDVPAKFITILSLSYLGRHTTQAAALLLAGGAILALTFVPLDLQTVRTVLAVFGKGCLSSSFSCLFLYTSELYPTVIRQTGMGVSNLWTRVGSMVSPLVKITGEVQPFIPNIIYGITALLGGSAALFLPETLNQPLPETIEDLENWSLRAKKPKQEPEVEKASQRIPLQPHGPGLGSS
Described as above.

Substrate in series [7]: O=c1[nH]c(=O)c2[nH]c(=O)[nH]c2[nH]1
The series is described as follows: cells, lysate or membranes. It counts as cell-based, Rattus norvegicus. The settings on record: Na+ likely to share the same substrate recognition site with uracil.

The term IC50 denotes the midpoint of a concentration-inhibition curve. Turning to `Nc1nc2nc[nH]c2c(=O)[nH]1` [Guanine], half-maximal inhibition in series [1] (IC50) was put at 2.7 ± 0.8 µM.
On to `O=c1[nH]cnc2nc[nH]c12` [Hypoxanthine], for which the IC50 in series [1] (read-out: IC50) turned out to be 10.1 ± 2.4 µM.
As to `COc1ccc2c3c([nH]c2c1)[C@H](CC(C)C)N1C(=O)[C@H](CCC(=O)OC(C)(C)C)NC(=O)[C@@H]1C3` [Ko143], the “inhibition of rBCRP-mediated urate efflux in HEK293 cells co-expressing rSNBT1” value in series [2] is given as “Ko143 was effective in inhibiting rBCRP‐mediated urate efflux almost completely at that concentration”.
In the case of `Cc1c[nH]c(=O)[nH]c1=O` [Thymine], in series [1] (read-out: IC50), the 50% inhibitory concentration (IC50) turned out to be 8.8 ± 2.5 µM.
In turn, `O=c1cc[nH]c(=O)[nH]1` [Uracil] had an IC50 in series [3] of 28.4 ± 8.5 µM.
`O=c1[nH]c(=O)c2[nH]c(=O)[nH]c2[nH]1` [urate]: the “[14C]urate uptake in transiently transfected HEK293 cells” value is listed as “When transiently introduced into HEK293 cells, all those transporters raised urate uptake, but to lesser extents than rSNBT1” in series [4]; “When transiently introduced into HEK293 cells, all those transporters raised urate uptake, but to lesser extents than rSNBT1” in series [5]; “When transiently introduced into HEK293 cells, all those transporters raised urate uptake, but to lesser extents than rSNBT1” in series [6].

B1: rat sodium-dependent nucleobase transporter 1 (rSNBT1) (Rattus norvegicus) (protein)
chain: T1 sequence (D2KX48 1-614)
The Km is the concentration of substrate that gives half-maximal velocity. For B1, the Michaelis constant (Km) in series [7] came to 433 ± 113 µM.
